The results in this text go back to patent US20250319053A1, “INHIBITORS OF THE PEPTIDYL-PROLYL CIS/TRANS ISOMERASE (PIN1), COMBINATIONS AND USES THEREOF” (DANA-FARBER CANCER INSTITUTE, INC., priority 2021, published 2025).

One data set relates to splenocytes. Nature of the data set: Immune profiling of splenocytes by flow cytometry. Type of data set: in vivo, mouse. Particulars: 40 mg/kg i.p. daily for 5 weeks. The protocol:
After filtered, cell lysate was collected. To assess cell surface expressions, cells were harvested by non-enzymatic cell dissociation solution, and resuspend in blocking solution (Cell Staining Buffer, BioLegend). Cells were incubated with following antibodies; […] For FOXP3 staining, cells were fixed and permeabilized using Foxp3/Transcription Factor Staining Buffer Set (00-5523, eBioscience), and incubated with FOXP3-FITC (11-5773-82, Invitrogen) for 30 mins at RT. For Granzyme B staining, cells were fixed and permeabilized using Intracellular Fixation & Permeabilization Kit (88-8824-00, eBioscience), and incubated with Granzyme B-FITC (515403, BioLegend) for 30 mins at RT. All antibodies were diluted according to manufacture instruction. Cells were analyzed using CytoFLEX flow cytometer and CytExpert software (Beckman Coulter, IN, USA). Table 2 is a table of immune profiling of splenocytes from Pin1i−2 treated non-tumor-bearing B6 mice. See also FIG. 1A-FIG. 1G, FIG. 8A-FIG. 8O, and FIG. 9A-9L. WT B6 mice (non-tumor-bearing mice) were treated with vehicle or Pin1i−2 (40 mg/kg, i.p., daily) for 5 weeks, followed by examining the immune profile of splenocytes using flow cytometry (n=5).

Data set [1] in a line: Body weight of Pin1i-2 treated non-tumor-bearing B6 mice. Format: in vivo, mouse. The note with it: Day 0 = 100. The protocol:
Table 1 is a table of blood test results together with body weight of Pin1i−2 treated non-tumor-bearing B6 mice. See also FIG. 1A-FIG. 1G, FIG. 8A-FIG. 8O, and FIG. 9A-9L. WT B6 mice (non-tumor-bearing mice) were treated with vehicle or Pin1i−2 (20, 40, or 60 mg/kg, i.p., daily) for 5 weeks, followed by examining mice body weight or the RBC, Hb, Plate, and kidney and liver function using blood tests at 3 weeks and 5 weeks (n=5).

A further data set has as its system human PDAC organoids. The experiment in a line: Organoid apoptosis assay, co-culture with activated human PBMCs. Type of data set: cell-based. The note with it: Pin1i−2 at 5 μM 3 days, αPD1 at 200 μg/mL for 40 hrs. The protocol: For assaying the effects of Pin1 inhibition on anti-PD1 or PDL1 sensitivity, organoids and PBMCs were co-culture as described previously (Dijkstra et al., 2018; Jiao et al., 2017). […] Human PBMCs (Precision for Medicine) were stimulated by PDAC organoid culture media, and 8.0×10^4 PBMCs were incubated with 2 pl CD3/28 beads (11161D, GIBCO) and 30 U recombinant IL-2 (200-02, Peprotech) per well in 96-well plates for 24 hours before starting co-culture. […] At the start of co-culture, a green-fluorescent caspase 3/7 probe reagent (R37111, Invitrogen) and Hoechst (135102, Invitrogen) were added to visualize cells undergoing apoptosis. Apoptotic organoids were monitored by live-cell time lapse imaging was started 2 hours after the start of co-culture using BZ-X800 fluorescence microscope (KEYENCE) and quantified using BZ-X800 analyzer (ver. 1.1.1.8, KEYENCE). […] Synergy scores were calculated by Synergyfinder ver 2 (synergyfinder.fimm.fi/) (Ianevski et al., Nucleic Acids Res. 48 IW1), […]-[…] (2020)).

The target of a further data set is Pin1 (Homo sapiens, UniProt Q13526). Nature of the data set: Immunoblotting for Pin1 and substrate oncoproteins in PDAC cells. Type of data set: cell-based. More on the design: endogenous in cells; host or cells: primary human patient-derived PDAC cells (PDAC1, PDAC2). The note with it: 72 hrs. The protocol: Cultured cells were lysed in RIPA buffer (50 mM Tris-HCl, pH 7.2, 150 mM NaCl, 1% NP40, 0.1% sodium dodecyl sulfate (SDS), 0.25% Na-deoxycholate) with freshly added phosphatase inhibitors containing 5 mM NaF and 0.2 mM sodium orthovanadate (NA3VO4), and proteinase inhibitors containing 2 μg/mL Aprotinin, 2 μg/mL Leupeptin, 2 μg/mL Pepstatin A, 1 mM DTT (dithiothreitol), 0.5 mM 4-(2-aminoethyl)-benzenesulfonyl fluoride (AEBSF), and 20 mM Chymotrypsin, and then mixed with the SDS sample buffer and loaded onto a gel after boiling for 10 minutes at 95° C. The proteins were resolved by polyacrylamide gel electrophoresis and transferred to PVDF membrane. The transferred membrane was washed three times with Tris-buffered saline containing 0.1% Tween 20 (TBST). After blocking with TBST containing 5% milk or 3% bovine serum albumin (BSA) for 1 h room temperature, the membrane was incubated with the appropriate primary antibody (diluted 1:500-1:10000) in 5% milk or 3% BSA-containing TBST at 4° C. overnight. After incubation with the primary antibody, the membrane was washed three times with TBST for a total of 30 min followed by incubation with horseradish peroxidase conjugated goat anti-rabbit or anti-mouse IgG (diluted 1:5000) for 1 h at room temperature. After three extensive washes with TBST for a total of 30 min, the immunoblots were visualized by enhanced chemi-luminescence. Immunoblotting results were quantified using ImageJ (NIH).
Pin1, sequence (Q13526 whole entry): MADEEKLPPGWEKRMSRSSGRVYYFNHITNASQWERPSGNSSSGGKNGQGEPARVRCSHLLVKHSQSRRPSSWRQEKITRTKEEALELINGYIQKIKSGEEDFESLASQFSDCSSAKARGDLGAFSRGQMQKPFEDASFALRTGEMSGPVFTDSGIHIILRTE

Data set [2] concerns human PDAC cells (PDAC1 and PDAC2). Nature of the data set: Cell proliferation assay (CellTiter-Glo) in PDAC cells. Format: cell-based. The note with it: 72 hrs. As to the method:
Cells were seeded at a density of 5000 cells (PDAC1 and PDAC2), or 3000 cells (CAF1 and CAF2) per well in 96-well flat-bottomed plates and incubated for 24 h in culture medium. […] Control cells received dimethyl sulfoxide (DMSO) at a concentration equal to that of drug-treated cells for 72 hours. The cell viability was determined by CellTiter-Glo® 2.0 Assay (Promega) following the manufacturer's instructions.

As for `CC(C)(C)CN(C(=O)CCl)C1CCS(=O)(=O)C1` (stereo not shown) [Pin1i−2, sulfopin], in the data set on splenocytes (n=5), the “CD3−CD11b+ Myeloid cells” value is given as 6.79 % of CD45+ cell, the “CD8a+ T-cell” value was 14.30 % of CD45+ cell, the “CD11b+Ly6G+ Myeloid Cells” value is 1.71 % of CD45+ cell and the “CD11c+MHC-II+ DCs” value is recorded as 1.48 % of CD45+ cell. In the data set with splenocytes (n=5), the “CD45+CD3+ Cells” value was 27.77 % of CD45+ cell and the “F4/80+ Macrophages” value is 3.54 % of CD45+ cell. In the data set on splenocytes (listed under CD8a+ T-cell), the CTLA4 amounted to 76.08 MFI, the Lag3 came to 449.84 MFI, the MHC-ClassI came to 11456.80 MFI and the PD-1 is reported as 67.90 MFI. In the data set on splenocytes (listed under CD11b+Ly6G+ Myeloid Cells), this molecule yielded a PD-L1 of 12447.46 MFI. Further, the PD-L1 in the data set on splenocytes (listed under CD11c+MHC-II+ DCs) is listed as 89012.88 MFI. The same molecule displayed a Body weight in data set [1] (20 mg/kg i.p. daily, 3 weeks) of 105.5371%. Moreover, the Body weight in data set [1] (20 mg/kg i.p. daily, 5 weeks) was found to be 107.5%. In data set [1] (40 mg/kg i.p. daily, 3 weeks), this molecule gave a Body weight of 107.9%. In data set [1] (40 mg/kg i.p. daily, 5 weeks), this molecule yielded a Body weight of 106.7%. The molecule also came in with a Body weight in data set [1] (60 mg/kg i.p. daily, 3 weeks) of 104.8%. The same molecule came in with a Body weight in data set [1] (60 mg/kg i.p. daily, 5 weeks) of 107.3%. Further, the “apoptosis of WT organoids” value with human PDAC organoids is given as “promoted the apoptosis of WT organoids”. Moreover, the “Pin1 and its substrate oncoproteins (IB)” value on Pin1 is on record as “ablate Pin1”. Moreover, in data set [2] (PDAC cells), the “cell growth (proliferation assay)” value was “dose-dependently suppress cell growth”. Further, in data set [2] (Pin1-KO PDAC2 cells), the “Pin1 KO cell growth” value was “fails to suppress Pin1 KO cell growth”.
